Measurements as given in patent publication US20130085161A1, “PIPERIDINYL SUBSTITUTED 1,3-DIHYDRO-BENZOIMIDAZOL-2-YLIDENEAMINE DERIVATIVES” (NOVARTIS AG, priority 2010, published 2013).

Biological target: T1, BaF3-Tel-IGF1-R (Homo sapiens, UniProt P08069)
T1 construct: the kinase domain of IGF-1R (aa 976-1367) linked by a Ser-Arg-linker; expressed in transfected cells; host or cells: BaF3 murine proB-cell lymphoma cells, stably transduced
Assay: BaF3 cell viability assay (resazurin), 384-well format
Format: cell-based
Settings: 384-well plate format; 48 h incubation; resazurin dye reduction; cell proliferation/viability
Source text: BaF3-Tel-IGF1-R and BaF3-InsR are BaF3 murine proB-cell lymphoma cell derivatives [the BaF3 cell line (also termed Ba/F3) is available from the German Collection of Microorganisms and Cell Cultures (DSMZ), Braunschweig, Germany] that have been rendered IL-3-independent by stable transduction with kinase-activating fusions between human TEL (aa 1-452) and the kinase domain of IGF-1R (aa 976-1367) linked by a Ser-Arg-linker (Boulay et al, Cancer Res 68, 3743-3751, 2008), and a fusion between human TEL (aa 1-337) and the kinase domain (aa 1015-1382) of the Insulin receptor (Melnick J S et al, Proc Natl Acad Sci USA 103, 3153-3158, 2006), respectively. Cells are cultured in RPMI-1640 (Animed #1-14F01-1) supplemented with 2% L-glutamine (Animed #5-10K50-H) and 10% fetal calf serum (FCS, Animed #2-01F16-I). Wild-type, untransfected BaF3 cells are maintained in above medium plus 10 U/ml IL-3 (mouse Interleukin-3, Roche #1380745 or Invitrogen # PMC0035) and are used to identify non-selective, generally growth-inhibitory compounds. Cells (1.5×10^4 cells per well) are seeded in 190 μl fresh medium into 96-well plates. 10 μl 20× compound solutions are added. As internal control, the kinase inhibitor PKC412 is routinely used. Control cells treated with DMSO (0.1% final concentration) serve as growth reference (set as 100% growth). In addition, a plate blank value is routinely determined in a well containing only […] of medium and no cells. IC50 determinations are performed based on eight 3-fold serial dilutions of the test compound, starting at 10 μM. Following incubation of the cells for 48 h at 37° C. and 5% CO2, the effect of inhibitors on cell viability is assessed by the resazurin sodium salt dye reduction assay (commercially known as AlamarBlue assay) basically as previously described (O'Brien J. et al., Eur. J. Biochem. 267: 5421-5426, 2000). Briefly, 20 μl dye solution is added per well and the plates incubated for 6 h at 37° C. and 5% CO2. Thereafter, fluorescence is measured using a Saphirell 96-well plate reader (TECAN, Männedorf, Switzerland) with the following settings: Excitation 544 nm and Emission 590 nm. For data analysis, the plate blank value is subtracted from all data points. The effect of a particular test compound concentration on cell proliferation and viability is expressed as percentage of the blank-corrected reading obtained for cells treated with vehicle only, which is set as 100%. IC50 values can be determined using XLfit (V4.2), applying standard four parameter logistic model #205 (IDBS, Guilford, UK) or other common curve-fitting software.
To achieve a higher throughput, the cell viability assay can also be performed in a 384-well format. Briefly, 4′500 freshly diluted cells are seeded in 54 μl/well into 384-well plates using a liquid dispenser. 6 μl 10× compound solution is added to the cell plate. As internal control, the kinase inhibitor PKC412 is routinely used. Control cells treated with DMSO (0.1% final concentration) serve as growth reference (set as 100% growth). In addition, a plate blank value is routinely determined in a well containing only 60 μl of medium and no cells. Dose-response effects are determined by 3-fold serial compound dilutions, starting at 10 μM. Following incubation of the cells for 48 h at 37° C. and 5% CO2, the effect of compounds on cell proliferation/viability is assessed by addition of 6 μl resazurin sodium salt dye solution per well. Following incubation for an additional 6 hrs at 37° C. and 5% CO2, fluorescence is measured using an Infiniti M1000 microplate reader (TECAN, Männedorf, Switzerland) with excitation and emission wavelengths set at 544 and 590 nm, respectively. For data analysis, the plate blank value is subtracted from all data points. IC50 values can be determined by four parameter logistic fitting as described above.

T1 sequence (P08069 976-1367): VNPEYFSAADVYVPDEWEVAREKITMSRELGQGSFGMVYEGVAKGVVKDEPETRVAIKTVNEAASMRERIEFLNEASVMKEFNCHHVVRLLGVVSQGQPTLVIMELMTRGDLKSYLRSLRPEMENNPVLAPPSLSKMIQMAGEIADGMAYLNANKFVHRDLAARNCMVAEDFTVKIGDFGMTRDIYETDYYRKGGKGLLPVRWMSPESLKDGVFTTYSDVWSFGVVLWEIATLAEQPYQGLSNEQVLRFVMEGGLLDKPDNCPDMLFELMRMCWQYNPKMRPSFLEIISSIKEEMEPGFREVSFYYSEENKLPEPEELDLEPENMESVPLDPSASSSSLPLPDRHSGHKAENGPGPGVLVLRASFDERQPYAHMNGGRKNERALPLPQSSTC

Row | SMILES | IC50 [nM]
1 | CC(=O)Nc1ccc(C)nc1N1CCC(n2c(=N)n(Cc3ccccc3Cl)c3ccc(F)cc32)CC1 [Example 78, N-{4-[3-(2-Chloro-benzyl)-6-fluoro-2-imino-2,3-dihydro-benzoimidazol-1-yl]-6′-methyl-3,4,5,6-tetrahydro-2H-[1,2′]bipyridinyl-3′-yl}-acetamide] | 62
2 | CC(=O)Nc1ccc(Cl)cc1N1CCC(n2c(=N)n(Cc3cccc4[nH]nnc34)c3ccccc32)CC1 [Example 60, N-(2-{4-[3-(1H-Benzotriazol-4-ylmethyl)-2-imino-2,3-dihydro-benzoimidazol-1-yl]-piperidin-1-yl}-4-chloro-phenyl)-acetamide] | 64
3 | CC(=O)Nc1ccccc1N1CCC(n2c(=N)n(Cc3cccc4[nH]ccc34)c3ccc(F)cc32)CC1 [Example 56.19, N-(2-{4-[6-Fluoro-2-imino-3-(1H-indol-4-ylmethyl)-2,3-dihydro-benzoimidazol-1-yl]-piperidin-1-yl}-phenyl)-acetamide] | 382
4 | COc1ccc(NC(C)=O)c(N2CCC(n3c(=N)n(Cc4ccccc4Cl)c4ccccc43)CC2)c1 [Example 56.10, N-(2-{4-[3-(2-Chloro-benzyl)-2-imino-2,3-dihydro-benzoimidazol-1-yl]-piperidin-1-yl}-4-methoxy-phenyl)-acetamide] | 88
5 | CC(=O)Nc1ccc(Cl)cc1N1CCC(n2c(=N)n(Cc3ccccc3Cl)c3ccc(F)cc32)CC1 [Example 62, N-(4-Chloro-2-{4-[3-(2-chloro-benzyl)-6-fluoro-2-imino-2,3-dihydro-benzoimidazol-1-yl]-piperidin-1-yl}-phenyl)-acetamide] | 36
6 | CC(=O)/N=c1\n(Cc2ccccc2Cl)c2ccccc2n1C1CCN(c2cc(Cl)ccc2NC(C)=O)CC1 [Example 59, N-(2-{4-[2-Acetylimino-3-(2-chloro-benzyl)-2,3-dihydro-benzoimidazol-1-yl]-piperidin-1-yl}-4-chloro-phenyl)-acetamide] | 407
7 | CC(=O)Nc1ccc(Cl)cc1N1CCC(n2c(=N)n(Cc3cccc4[nH]ccc34)c3ccccc32)CC1 [Example 57] | 15
8 | CC(=O)Nc1ccc(C)cc1N1CCC(n2c(=N)n(Cc3ccccc3Cl)c3ccc(F)cc32)CC1 [Example 56.12, N-(2-{4-[3-(2-Chloro-benzyl)-6-fluoro-2-imino-2,3-dihydro-benzoimidazol-1-yl]-piperidin-1-yl}-4-methyl-phenyl)-acetamide] | 48
9 | CC(=O)Nc1ccc(C)nc1N1CC[C@H](n2c(=N)n(Cc3ccccc3Cl)c3ccc(F)cc32)[C@@H](O)C1 (racemic) [Example 67.2, Rac-trans-N-{4-[3-(2-Chloro-benzyl)-6-fluoro-2-imino-2,3-dihydro-benzoimidazol-1-yl]-3-hydroxy-6′-methyl-3,4,5,6-tetrahydro-2H-[1,2′]bipyridinyl-3′-yl}-acetamide] | 62
10 | COc1ccc(NC(C)=O)c(N2CCC(n3c(=N)n(Cc4cccc5[nH]ccc45)c4ccccc43)CC2)c1 [Example 56.1, N-(2-{4-[2-Imino-3-(1H-indol-4-ylmethyl)-2,3-dihydro-benzoimidazol-1-yl]-piperidin-1-yl}-4-methoxy-phenyl)-acetamide] | 35
11 | CC(=O)Nc1ccc(Cl)cc1N1CC[C@H](n2c(=N)n(Cc3cccc4[nH]cnc34)c3ccc(F)cc32)[C@@H](O)C1 (racemic) [Example 67.7, Rac-trans-N-(2-{4-[3-(1H-Benzo-imidazol-4-ylmethyl)-6-fluoro-2-imino-2,3-dihydro-benzo-imidazol-1-yl]-3-hydroxy-piperidin-1-yl}-4-chloro-phenyl)-acetamide] | 644
12 | CC(=O)Nc1ccccc1N1CCC(n2c(=N)n(Cc3ccccc3Cl)c3ccc(F)cc32)CC1 [Example 56.18, N-(2-{4-[3-(2-Chloro-benzyl)-6-fluoro-2-imino-2,3-dihydro-benzoimidazol-1-yl]-piperidin-1-yl}-phenyl)-acetamide] | 119
13 | CC(=O)Nc1ccc(C)cc1N1CCC(n2c(=N)n(Cc3ccccc3Cl)c3ccccc32)CC1 [Example 56.5, N-(2-{4-[3-(2-Chloro-benzyl)-2-imino-2,3-dihydro-benzoimidazol-1-yl]-piperidin-1-yl}-4-methyl-phenyl)-acetamide] | 51
14 | CC(=O)Nc1ccc(Cl)cc1N1CCC(n2c(=N)n(Cc3cccc4[nH]ccc34)c3ccc(F)cc32)CC1 [Example 61, N-(4-Chloro-2-{4-[6-fluoro-2-imino-3-(1H-indol-4-ylmethyl)-2,3-dihydro-benzoimidazol-1-yl]-piperidin-1-yl}-phenyl)-acetamide] | 8
15 | CC(=O)Nc1ccc(Cl)cc1N1CC[C@H](n2c(=N)n(Cc3cccc4[nH]nnc34)c3ccc(F)cc32)[C@@H](O)C1 (racemic) [Example 67.6, Rac-trans-N-(2-{4-[3-(1H-Benzo-triazol-4-ylmethyl)-6-fluoro-2-imino-2,3-dihydro-benzoimidazol-1-yl]-3-hydroxy-piperidin-1-yl}-4-chloro-phenyl)-acetamide] | 517
16 | CC(=O)Nc1ccc(C)cc1N1CCC(n2c(=N)n(Cc3cccc4[nH]ccc34)c3ccc(F)cc32)CC1 [Example 56.15, N-(2-{4-[6-Fluoro-2-imino-3-(1H-indol-4-ylmethyl)-2,3-dihydro-benzoimidazol-1-yl]-piperidin-1-yl}-4-methyl-phenyl)-acetamide] | 41
17 | CC(=O)Nc1ccc(Cl)cc1N1CC[C@H](n2c(=N)n(Cc3cccc4[nH]ccc34)c3ccccc32)[C@@H](O)C1 (racemic) [Example 67.5, Rac-trans-N-(4-Chloro-2-{3-hydroxy-4-[2-imino-3-(1H-indol-4-ylmethyl)-2,3-dihydro-benzoimidazol-1-yl]-piperidin-1-yl}-phenyl)-acetamide] | 30
18 | CC(=O)Nc1ccc(C#N)cc1N1CCC(n2c(=N)n(Cc3cccc4[nH]ccc34)c3ccccc32)CC1 [Example 56.4, N-(4-Cyano-2-{4-[2-imino-3-(1H-indol-4-ylmethyl)-2,3-dihydro-benzoimidazol-1-yl]-piperidin-1-yl}-phenyl)-acetamide] | 100
19 | CC(=O)Nc1ccc(C)nc1N1CCC(n2c(=N)n(Cc3cccc4[nH]ccc34)c3ccc(F)cc32)CC1 [Example 65, N-{4-[6-Fluoro-2-imino-3-(1H-indol-4-ylmethyl)-2,3-dihydro-benzoimidazol-1-yl]-6′-methyl-3,4,5,6-tetrahydro-2H-[1,2′]bipyridinyl-3′-yl}-acetamide] | 5
20 | CC(=O)Nc1ccc(C)nc1N1CC[C@H](n2c(=N)n(Cc3cccc4[nH]ccc34)c3ccccc32)[C@@H](O)C1 (racemic) [Example 67.4, Rac-trans-N-{3-Hydroxy-4-[2-imino-3-(1H-indol-4-ylmethyl)-2,3-dihydro-benzoimidazol-1-yl]-6′-methyl-3,4,5,6-tetrahydro-2H-[1,2′]bipyridinyl-3′-yl}-acetamide] | 1010
21 | CC(=O)Nc1ccc(Cl)cc1N1CCC(n2c(=N)n(Cc3ccccc3Cl)c3ccccc32)CC1 [Example 58, N-(4-Chloro-2-{4-[3-(2-chloro-benzyl)-2-imino-2,3-dihydro-benzoimidazol-1-yl]-piperidin-1-yl}-phenyl)-acetamide] | 37
